PMC4287394 (Clinical cancer research : an official journal of the …, 2014)

Assays:
[1] = tested on: purified recombinant human PI3K p110α; conditions: read-out: IC50 p110α; purified recombinant human PI3K isoforms; cited from earlier work
[2] = tested on: phospho-S6 (Ser235/236) in tumor tissue; assay: Phospho-S6 immunohistochemistry in paired tumor biopsies; format: in vivo, human
[3] = tested on: phospho-AKT (Ser473) in platelet-rich plasma; assay: Phospho-AKT in platelet-rich plasma; format: in vivo, human
plasma glucose = conditions: 330mg, cycle 1 day 1, 1 hour from baseline
[4] = tested on: IGROV1 ovarian cancer xenografts; conditions: oral dose of 150mg/kg; IGROV1 ovarian cancer xenograft; cited from earlier work
Class I PI3K = conditions: cited from earlier work
[5] = Plasma pharmacokinetics in patients; format: in vivo, human; conditions: for half-life / AUC(0-t) / Cmax / Tmax: human, plasma; for AUC(0-t): AUC 0-24, geometric mean; for Cmax: geometric mean; for Tmax: median
tumor 18F-FDG uptake = assay: Whole body 18F-FDG-PET; format: in vivo, human
[6] = tested on: U87MG glioblastoma xenografts; conditions: oral dose of 150mg/kg; U87MG glioblastoma xenograft; cited from earlier work
[7] = tested on: phospho-AKT (Serine 473) in tumor tissue; assay: Phospho-AKT immunohistochemistry in paired tumor biopsies; format: in vivo, human
mTOR = conditions: cited from earlier work
[8] = cited from earlier work
advanced solid tumors = assay: Antitumor activity; format: in vivo, human
[9] = tested on: purified recombinant human PI3K p110β; conditions: read-out: IC50 p110β; purified recombinant human PI3K isoforms; cited from earlier work
plasma insulin = conditions: 330mg, cycle 1 day 1, 1 hour from baseline
[10] = tested on: purified recombinant human PI3K p110δ; conditions: read-out: IC50 p110δ; purified recombinant human PI3K isoforms; cited from earlier work
[11] = patient with cKIT exon 9 mutant gastrointestinal stromal tumor, 450mg once-daily
[12] = platinum-refractory ovarian cancer patient, 100mg once-daily 21/28
[13] = oral, 15 mg, Day 1, 15 mg QD, 4 patients
[14] = oral, 15 mg, Day 15, 15 mg QD, 4 patients
[15] = oral, 30 mg, Day 1, 30 mg QD, 3 patients
[16] = oral, 30 mg, Day 15, 30 mg QD, 3 patients
[17] = oral, 45 mg, Day 1, 45 mg QD, 4 patients
[18] = oral, 45 mg, Day 15, 45 mg QD, 4 patients
[19] = oral, 60 mg, Day 1, 60 mg QD, 4 patients
[20] = oral, 60 mg, Day 15, 60 mg QD, 3 patients
[21] = oral, 80 mg, Day 1, 80 mg QD, 3 patients
[22] = oral, 80 mg, Day 15, 80 mg QD, 3 patients
[23] = oral, 100 mg, Day 1, 100 mg QD, 5 patients
[24] = oral, 100 mg, Day 15, 100 mg QD, 3 patients
[25] = oral, 130 mg, Day 1, 130 mg QD, 3 patients
[26] = oral, 130 mg, Day 15, 130 mg QD, 3 patients
[27] = oral, 180 mg, Day 1, 180 mg QD, 3 patients
[28] = oral, 180 mg, Day 15, 180 mg QD, 3 patients
[29] = oral, 245 mg, Day 1, 245 mg QD, 3 patients
[30] = oral, 245 mg, Day 15, 245 mg QD, 3 patients
[31] = oral, 330 mg, Day 1, 330 mg QD, 17 patients
[32] = oral, 330 mg, Day 15, 330 mg QD, 17 patients
[33] = oral, 340 mg, Day 1, 340 mg QD, 7 patients
[34] = oral, 340 mg, Day 15, 340 mg QD, 6 patients
[35] = oral, 400 mg, Day 1, 400 mg QD, 1 patient
[36] = oral, 450 mg, Day 1, 450 mg QD, 3 patients
[37] = oral, 450 mg, Day 15, 450 mg QD, 3 patients
[38] = 9 patients with PI3K pathway alterations
[39] = patient with BRAF V600E-mutated metastatic melanoma, 330mg once-daily 21/28

Which results are given for `CS(=O)(=O)N1CCN(Cc2cc3nc(-c4cccc5[nH]ncc45)nc(N4CCOCC4)c3s2)CC1` [pictilisib, 2-(1H-indazol-4-yl)-6-(4-methanesulfonyl-piperazin-1-ylmethyl)-4-morpholin-4-yl-t hieno[3,2-d]pyrimidine]?
IC50 [1]: 3 nM; Reduction in tumor phospho-S6 expression [2, 11]: 75%; Reduction in tumor phospho-S6 expression [2, 12]: 56%; Inhibition of phospho-AKT level in platelet rich plasma ([3]; 1 to 3 hours post-dose at the RP2D (330mg)): up to 90%; Suppression of phosphorylated serine-473 AKT in platelet rich plasma ([3]; 3 hours post-dose at the MTD): > 90%; Phospho-AKT in platelet rich plasma, sustained effect, % of baseline ([3]; 24 hours post-dose at the RP2D (330mg)): 50%; Mean fold-change (post- over pre-treatment) in plasma glucose (plasma glucose): 1.18 (95%CI: 1.10-1.26); growth inhibition [4]: 80%; Observed in vitro potency compared with BKM120 (Class I PI3K): higher; Increase in exposure (Cmax and AUC0-24) with dose ([5]; across the dose levels studied, 15-450mg): dose-proportional; half-life ([5]; oral): 13.1 to 24.1 h; half-life ([5]; oral, 15 mg): 19.2 h; AUC(0-t) [5, 13]: 0.978 µM·h; AUC(0-t) [5, 14]: 1.35 µM·h; Cmax [5, 13]: 112 nM; Cmax [5, 14]: 116 nM; Tmax [5, 13]: 2 h; Tmax [5, 14]: 1.5 h; half-life ([5]; oral, 30 mg): 24.1 h; AUC(0-t) [5, 15]: 1.18 µM·h; AUC(0-t) [5, 16]: 1.9 µM·h; Cmax [5, 15]: 144 nM; Cmax [5, 16]: 179 nM; Tmax [5, 15]: 2 h; Tmax [5, 16]: 1 h; half-life ([5]; oral, 45 mg): 19.5 h; AUC(0-t) [5, 17]: 2.77 µM·h; AUC(0-t) [5, 18]: 4.09 µM·h; Cmax [5, 17]: 362 nM; Cmax [5, 18]: 436 nM; Tmax [5, 17]: 2 h; Tmax [5, 18]: 2 h; half-life ([5]; oral, 60 mg): 18.8 h; AUC(0-t) [5, 19]: 2.02 µM·h; AUC(0-t) [5, 20]: 2.78 µM·h; Cmax [5, 19]: 242 nM; Cmax [5, 20]: 270 nM; Tmax [5, 19]: 2 h; Tmax [5, 20]: 3 h; half-life ([5]; oral, 80 mg): 20.1 h; AUC(0-t) [5, 21]: 5.45 µM·h; AUC(0-t) [5, 22]: 9.86 µM·h; Cmax [5, 21]: 632 nM; Cmax [5, 22]: 779 nM; Tmax [5, 21]: 2 h; Tmax [5, 22]: 3 h; half-life ([5]; oral, 100 mg): 14.6 h; AUC(0-t) [5, 23]: 3.19 µM·h; AUC(0-t) [5, 24]: 5.64 µM·h; Cmax [5, 23]: 362 nM; Cmax [5, 24]: 751 nM; Tmax [5, 23]: 2 h; Tmax [5, 24]: 2 h; half-life ([5]; oral, 130 mg): 13.1 h; AUC(0-t) [5, 25]: 2.99 µM·h; AUC(0-t) [5, 26]: 5.03 µM·h; Cmax [5, 25]: 359 nM; Cmax [5, 26]: 457 nM; Tmax [5, 25]: 2 h; Tmax [5, 26]: 1 h; half-life ([5]; oral, 180 mg): 17.1 h; AUC(0-t) [5, 27]: 5.95 µM·h; AUC(0-t) [5, 28]: 8.25 µM·h; Cmax [5, 27]: 611 nM; Cmax [5, 28]: 783 nM; Tmax [5, 27]: 2 h; Tmax [5, 28]: 1 h; half-life ([5]; oral, 245 mg): 16.8 h; AUC(0-t) [5, 29]: 8.18 µM·h; AUC(0-t) [5, 30]: 11.3 µM·h; Cmax [5, 29]: 994 nM; Cmax [5, 30]: 1370 nM; Tmax [5, 29]: 2 h; Tmax [5, 30]: 1 h; half-life ([5]; oral, 330 mg): 15.7 h; AUC(0-t) [5, 31]: 14.4 µM·h; AUC(0-t) [5, 32]: 22.8 µM·h; Cmax [5, 31]: 1520 nM; Cmax [5, 32]: 2070 nM; Tmax [5, 31]: 2 h; Tmax [5, 32]: 3 h; half-life ([5]; oral, 340 mg): 20.9 h; AUC(0-t) [5, 33]: 14.9 µM·h; AUC(0-t) [5, 34]: 16.5 µM·h; Cmax [5, 33]: 1680 nM; Cmax [5, 34]: 1950 nM; Tmax [5, 33]: 2 h; Tmax [5, 34]: 1 h; half-life ([5]; oral, 400 mg): 14.8 h; AUC(0-t) [5, 35]: 15.6 µM·h; Cmax [5, 35]: 1650 nM; Tmax [5, 35]: 2 h; half-life ([5]; oral, 450 mg): 15 h; AUC(0-t) [5, 36]: 13.9 µM·h; AUC(0-t) [5, 37]: 23.5 µM·h; Cmax [5, 36]: 1950 nM; Cmax [5, 37]: 2640 nM; Tmax [5, 36]: 2 h; Tmax [5, 37]: 2 h; Tmax ([5]; po, fasting, all doses): 2 h; Patients with metabolic partial response by EORTC-PET criteria (tumor 18F-FDG uptake; 32 evaluable patients): 22%; Patients with metabolic partial response by EORTC-PET criteria (>25% reduction in mean SUVmax) (tumor 18F-FDG uptake; 32 evaluable patients): 7 of 32 and Seven of 32; Overall median change in SUVmax (tumor 18F-FDG uptake; all evaluable patients): −13%; Range of change in SUVmax (tumor 18F-FDG uptake; all evaluable patients): −47 to 22%; Dose levels showing reduction from baseline of 18F-FDG-tracer uptake (tumor 18F-FDG uptake; in vivo): ≥ 45 mg; Reduction in SUVmax on 18F-FDG-PET (tumor 18F-FDG uptake; [11]): 47%; Reduction in mean SUVmax in subcapsular liver metastases (tumor 18F-FDG uptake; [12]): 30%; growth inhibition [6]: 98%; Decrease in AKT phosphorylation in tumor biopsies ([7]; AUC >20uM.hr on day 15, 2 of 3 patients): 100%; Suppression of phosphorylated serine-473 AKT in tumor ([7]; doses associated with AUC >20uM.hr): > 90%; fold less activity against mTOR compared to p110α (mTOR): 193 fold; Central nervous system (CNS) penetration compared with BKM120 [8]: lower; Patients with RECIST-based response (advanced solid tumors; [38]): none; Patients with response by GCIG-CA125 criteria (advanced solid tumors; [38]): 1; Response by RECIST (advanced solid tumors; [39]): partial response; Time on pictilisib (advanced solid tumors; [39]): 9.5 months; Duration of stable disease (advanced solid tumors; [11]): 7.5 months; Duration of radiological stable disease (RECIST) (advanced solid tumors; [12]): 4 months; Serum CA125 after treatment (advanced solid tumors; platinum-refractory ovarian cancer patient, decrease from 1214 U/ml): 400 U/ml; IC50 [9]: 33 nM; Mean fold-change (post- over pre-treatment) in plasma insulin (plasma insulin): 3.58 (95%CI: 2.33-5.49); IC50 [10]: 3 nM
